Target: T1, human adenosine A2b receptor (Homo sapiens, UniProt P29275)
T1 sequence (P29275 1-332): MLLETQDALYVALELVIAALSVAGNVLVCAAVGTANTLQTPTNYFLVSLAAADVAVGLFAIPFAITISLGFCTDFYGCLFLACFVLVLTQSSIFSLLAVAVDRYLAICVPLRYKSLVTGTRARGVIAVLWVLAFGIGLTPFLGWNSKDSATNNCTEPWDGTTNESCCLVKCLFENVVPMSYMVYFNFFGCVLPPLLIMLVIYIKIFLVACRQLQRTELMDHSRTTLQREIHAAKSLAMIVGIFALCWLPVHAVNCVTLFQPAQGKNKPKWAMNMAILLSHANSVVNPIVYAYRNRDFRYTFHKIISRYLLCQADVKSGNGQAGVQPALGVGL
Experiment: Cellular in vitro reporter gene test for A2b receptor activity (antagonism of NECA)
Assay type: cell-based
Design: expressed in transfected cells; host or cells: CHO-K1 (Chinese hamster ovary) with CRE-luciferase reporter
Settings: recombinant CHO-K1 cells, CRE-luciferase reporter, co-incubation with EC50 concentration of NECA, 3 hours
Method: The identification of selective antagonists of the human adenosine A2b receptor and the quantification of the efficacy and selectivity of the compounds according to the invention was carried out with the aid of recombinant cell lines for the human adenosine receptors A1, A2a, A2b and A3. These cell lines were originally derived from an ovarepithelial cell of the hamster (Chinese Hamster Ovary, CHO-K1, American Type Culture Collection, Manassas, Va. 20108, USA). In addition to the respective recombinantly expressed adenosine receptor for testing the efficacy at the A1, A2a and A2b receptors, the cell lines contain a reporter gene construct where expression of the firefly (Photinus pyralis) luciferase is under the control of a promoter which can be activated via intracellular signal cascades by stimulation of the receptors with the (not subtype-selective) adenosine receptor agonist NECA (5′-N-ethylcarboxamidoadenosine) [S. J. Hill, J. G. Baker, S. Rhees, Curr. Opin. Pharmacol. 1, 526-532 (2001)].
In the case of the A2a and A2b cell lines, this is a minimal promoter having a plurality of cAMP-responsive elements (CRE). Stimulation of the Gs-coupled A2b or A2a receptors by NECA ultimately leads, via formation of cAMP, to CRE-dependent induction of luciferase expression, which is detected 3 hours after the start of the incubation with NECA using a detection solution in a suitable luminometer. For testing the antagonists, initially, in a pre-experiment, the concentration of NECA which, at the test day in question, results in half-maximum stimulation of luciferase expression (EC50 concentration) is determined. By joint incubation of this EC50 concentration of NECA with the substances to be tested, it is possible to determine their antagonistic activity.
Table 1 below lists the IC50 values from the A2b receptor assay for individual working examples (in some cases as means of a plurality of independent individual determinations and rounded to two significant figures; it may also be the case here that various independent preparations of the respective working example have been used): […]

| IC50 | Compound |
| --- | --- |
| 5.4 nM | Cc1c(CN2CCNC2=O)sc2c1c(=O)n(C1(C)CC1)c(=O)n2CC1CCC1 [Example 61, 1-(Cyclobutylmethyl)-5-methyl-3-(1-methylcyclopropyl)-6-[(2-oxoimidazolidin-1-yl)methyl]thieno[2,3-d]pyrimidine-2,4(1H,3H)-dione] |
| 77 nM | CCOCCn1c(=O)n(C2(C)CC2)c(=O)c2c(C)c(CN3CCNC3=O)sc21 [Example 77, 1-(2-Ethoxyethyl)-5-methyl-3-(1-methylcyclopropyl)-6-[(2-oxoimidazolidin-1-yl)methyl]thieno[2,3-d]pyrimidine-2,4(1H,3H)-dione] |
| 66 nM | CO[C@H]1C[C@H](n2c(=O)c3c(C)c(Cn4nc[nH]c4=O)sc3n(CCC(F)(F)F)c2=O)C1 [Example 148, 3-(trans-3-Methoxycyclobutyl)-5-methyl-6-[(5-oxo-4,5-dihydro-1H-1,2,4-triazol-1-yl)methyl]-1-(3,3,3-trifluoropropyl)thieno[2,3-d]pyrimidine-2,4(1H,3H)-dione] |
| 200 nM | COCCn1c(=O)n([C@H]2C[C@@H](OC)C2)c(=O)c2c(C)c(CN3CCNC3=NC#N)sc21 [Example 160, [1-{[3-(cis-3-Methoxycyclobutyl)-1-(2-methoxyethyl)-5-methyl-2,4-dioxo-1,2,3,4-tetrahydrothieno[2,3-d]pyrimidin-6-yl]methyl}imidazolidin-2-ylidene]cyanamide] |
| 3.9 nM | Cc1c(Cn2nc[nH]c2=O)sc2c1c(=O)n(C1CC1C)c(=O)n2CCOC(F)(F)F (single isomer, unassigned) [Example 277, 5-Methyl-3-(2-methylcyclopropyl)-6-[(5-oxo-4,5-dihydro-1H-1,2,4-triazol-1-yl)methyl]-1-[2-(trifluoromethoxy)ethyl]thieno[2,3-d]pyrimidine-2,4(1H,3H)-dione] |
| 1.5 nM | Cc1c(Cn2cc[nH]c2=O)sc2c1c(=O)n(C1CC1C)c(=O)n2CCOC(F)(F)F (racemic) [Example 270, 5-Methyl-3-(2-methylcyclopropyl)-6-[(2-oxo-2,3-dihydro-1H-imidazol-1-yl)methyl]-1-[2-(trifluoromethoxy)ethyl]thieno[2,3-d]pyrimidine-2,4(1H,3H)-dione] |
| 43 nM | COCCn1c(=O)n([C@H]2C[C@@H]2C)c(=O)c2c(C)c(Cn3nc[nH]c3=O)sc21 [Example 325, 1-(2-Methoxyethyl)-5-methyl-3-[(1S,2S)-2-methylcyclopropyl]-6-[(5-oxo-4,5-dihydro-1H-1,2,4-triazol-1-yl)methyl]thieno[2,3-d]pyrimidine-2,4(1H,3H)-dione] |
| 19 nM | COC(=O)N=C1NCCN1Cc1sc2c(c1C)c(=O)n(C1(C)CCC1)c(=O)n2CCC(F)(F)F [Example 136, Methyl [1-{[5-methyl-3-(1-methylcyclobutyl)-2,4-dioxo-1-(3,3,3-trifluoropropyl)-1,2,3,4-tetrahydrothieno[2,3-d]pyrimidin-6-yl]methyl}imidazolidin-2-ylidene]carbamate] |
| 70 nM | COCCn1c(=O)n(C2CC3(CCC3)C2)c(=O)c2c(C)c(Cn3nc[nH]c3=O)sc21 [Example 183, 1-(2-Methoxyethyl)-5-methyl-6-[(5-oxo-4,5-dihydro-1H-1,2,4-triazol-1-yl)methyl]-3-(spiro[3.3]hept-2-yl)thieno[2,3-d]pyrimidine-2,4(1H,3H)-dione] |
| 40 nM | COCCn1c(=O)n(C2CC2)c(=O)c2c(C)c(CN3CCNC(=O)C3=O)sc21 [Example 27, 3-Cyclopropyl-6-[(2,3-dioxopiperazin-1-yl)methyl]-1-(2-methoxyethyl)-5-methylthieno[2,3-d]pyrimidine-2,4(1H,3H)-dione] |
| 8.6 nM | COCCn1c(=O)n(C2CC(C)(C)C2)c(=O)c2c(C)c(CN3CCNC3=NC#N)sc21 [Example 170, [1-{[3-(3,3-Dimethylcyclobutyl)-1-(2-methoxyethyl)-5-methyl-2,4-dioxo-1,2,3,4-tetrahydrothieno[2,3-d]pyrimidin-6-yl]methyl}imidazolidin-2-ylidene]cyanamide] |
| 48 nM | Cc1c(CN2CCNC2=NC#N)sc2c1c(=O)n(C1(C)CCC1)c(=O)n2CCC(F)(F)F [Example 135, [1-{[5-Methyl-3-(1-methylcyclobutyl)-2,4-dioxo-1-(3,3,3-trifluoropropyl)-1,2,3,4-tetrahydrothieno[2,3-d]pyrimidin-6-yl]methyl}imidazolidin-2-ylidene]cyanamide] |
| 290 nM | CCC1(n2c(=O)c3c(C)c(Cn4nc[nH]c4=O)sc3n(CCC(F)(F)F)c2=O)CC1 [Example 107, 3-(1-Ethylcyclopropyl)-5-methyl-6-[(5-oxo-4,5-dihydro-1H-1,2,4-triazol-1-yl)methyl]-1-(3,3,3-trifluoropropyl)thieno[2,3-d]pyrimidine-2,4(1H,3H)-dione] |
| 240 nM | Cc1c(Cn2nc[nH]c2=O)sc2c1c(=O)n(C1CC1)c(=O)n2CCCC#N [Example 212, 4-{3-Cyclopropyl-5-methyl-2,4-dioxo-6-[(5-oxo-4,5-dihydro-1H-1,2,4-triazol-1-yl)methyl]-3,4-dihydrothieno[2,3-d]pyrimidin-1 (2H)-yl}butanenitrile] |
| 0.86 nM | Cc1c(CN2CCNC2=O)sc2c1c(=O)n(C1CC1C)c(=O)n2CCF (single isomer, unassigned) [Example 232, 1-(2-Fluoroethyl)-5-methyl-3-(2-methylcyclopropyl)-6-[(2-oxoimidazolidin-1-yl)methyl]thieno[2,3-d]pyrimidine-2,4(1H,3H)-dione] |
| 3.1 nM | Cc1c(Cn2nc[nH]c2=O)sc2c1c(=O)n([C@H]1C[C@@H]1C)c(=O)n2CCC(F)(F)F [Example 323, 5-Methyl-3-[(1S,2S)-2-methylcyclopropyl]-6-[(5-oxo-4,5-dihydro-1H-1,2,4-triazol-1-yl)methyl]-1-(3,3,3-trifluoropropyl)thieno[2,3-d]pyrimidine-2,4(1H,3H)-dione] |
| 870 nM | COCCn1c(=O)n(C2CC2OC)c(=O)c2c(C)c(CN3CCNC3=O)sc21 (single isomer, unassigned) [Example 308, 3-(2-Methoxycyclopropyl)-1-(2-methoxyethyl)-5-methyl-6-[(2-oxoimidazolidin-1-yl)methyl]thieno[2,3-d]pyrimidine-2,4(1H,3H)-dione] |
| 10 nM | CCC1CC1n1c(=O)c2c(C)c(CN3CCNC3=O)sc2n(CCOC)c1=O (single isomer, unassigned) [Example 302, 3-(2-Ethylcyclopropyl)-1-(2-methoxyethyl)-5-methyl-6-[(2-oxoimidazolidin-1-yl)methyl]thieno[2,3-d]pyrimidine-2,4(1H,3H)-dione] |
| 12 nM | COC(=O)N=C1NCCN1Cc1sc2c(c1C)c(=O)n(C1CC1)c(=O)n2CC1CCCO1 (single isomer, unassigned) [Example 43, Methyl [1-{[3-cyclopropyl-5-methyl-2,4-dioxo-1-(tetrahydrofuran-2-ylmethyl)-1,2,3,4-tetrahydrothieno[2,3-d]pyrimidin-6-yl]methyl}imidazolidin-2-ylidene]carbamate] |
| 34 nM | Cc1c(CN2CCNC2=O)sc2c1c(=O)n(C1(C)CCC1)c(=O)n2CCC(F)(F)F [Example 134, 5-Methyl-3-(1-methylcyclobutyl)-6-[(2-oxoimidazolidin-1-yl)methyl]-1-(3,3,3-trifluoropropyl)thieno[2,3-d]pyrimidine-2,4(1H,3H)-dione] |
| 120 nM | COCCn1c(=O)n(C2CC2C(F)(F)F)c(=O)c2c(C)c(Cn3nc[nH]c3=O)sc21 (racemic) [Example 297, 1-(2-Methoxyethyl)-5-methyl-6-[(5-oxo-4,5-dihydro-1H-1,2,4-triazol-1-yl)methyl]-3-[2-(trifluoromethyl)cyclopropyl]thieno[2,3-d]pyrimidine-2,4(1H,3H)-dione] |
| 2.9 nM | CCCn1c(=O)n(C2CC2C)c(=O)c2c(C)c(CN3CCNC3=O)sc21 (racemic) [Example 227, 5-Methyl-3-(2-methylcyclopropyl)-6-[(2-oxoimidazolidin-1-yl)methyl]-1-propylthieno[2,3-d]pyrimidine-2,4(1H,3H)-dione] |
| 1.9 nM | Cc1c(CN2CCNC2=O)sc2c1c(=O)n(C1CC1C)c(=O)n2CC(F)F (racemic) [Example 234, 1-(2,2-Difluoroethyl)-5-methyl-3-(2-methylcyclopropyl)-6-[(2-oxoimidazolidin-1-yl)methyl]thieno[2,3-d]pyrimidine-2,4(1H,3H)-dione] |

From patent US20200016159A1, “N3-CYCLICALLY SUBSTITUTED THIENOURACILS AND USE THEREOF” (Bayer Aktiengesellschaft, priority 2016, published 2020)
